One may read the IC50 as the concentration at which inhibition is half-maximal. The low end stands for higher potency, the high end for lower potency.

These results are taken from patent publication US12006503B2, “Fusion proteins and methods thereof” (The Trustees of Columbia University in the City of New York, priority 2012, dated 2024).

“Also recorded” adds a separate entry of the source.

The test system of data set [1] is Rat1A cells expressing FGFR3-TACC3 fusion. The experiment in a line: Growth of Rat1A cells expressing FGFR3-TACC3 after FGFR3 shRNA lentivirus (trypan blue exclusion). The data set is classed as cell-based, rat. The note with it: lentiviral shRNA. The protocol: At the left, parallel cultures of GSC-1123 cells were transduced in triplicate. Rat1A cells expressing FGFR3-TACC3 fusion were transduced with lentivirus expressing a non-targeting shRNA (Ctr) or shRNA sequences targeting FGFR3 (sh2, sh3, sh4). Five days after infection cells were plated at density of 2λ10^4 cells/well in triplicate and the number of trypan blue excluding cells was scored at the indicated times. […] Values are the means±standard deviation (n=3). At the right sided figure, GSC-1123 cells were transduced with lentivirus expressing a non-targeting shRNA (sh-Ctr) or lentivirus expressing sh-3 and sh-4 sequences targeting FGFR3. Western Blot analysis was performed on parallel cultures using the FGFR3 antibody to the detect FGFT3-TACC3 fusion protein. β-actin is shown as a control for loading.
Cloning and Lentiviral production. Lentiviral expression vectors, pLOC-GFP (Open Biosystems) and pTomo-shp53, were used to clone FGFR3, TACC3, FGFR3-TACC3, FGFR3-TACC3-K508M, and FGFR1-TACC1. pTomo-shp53 was a gift of Inder Verma and Dinorah Friedman-Morvinski (Salk Institute, San Diego). The FGFR3-TACC3-K508M mutant was generated using the Phusion Site Direct Mutagenesis kit (NEB, USA). MISSION shRNAs clones (pLK0.1 lentiviral expression vectors) against FGFR3 were purchased from Sigma. The hairpin sequences targeting the FGFR3 gene are—

Data set [2] has as its system intracranial luciferase-expressing FGFR3-TACC3-driven glioma xenografts. Description: Orthotopic (intracranial) FGFR3-TACC3-driven glioma xenografts, drug treatment, survival. Format: in vivo, mouse. Conditions: 50 mg/kg, oral, 20 days. The text has this: Mice were monitored daily and sacrificed when neurological symptoms appeared.
Data set [3] relates to human glioma stem cells GIC-1123. The note with it: GIC-1123, 72 hours, MTT. On the procedure:
(§1) Cell culture and cell growth assay. GIC-1123 gliomaspheres were cultured in neurobasal medium (Invitrogen) supplemented with B27, N2 (Invitrogen), EGF and FGF2 (20 ng/ml, PeproTech). Mouse astrocytes Ink4A-Arf−/− were cultured in DMEM supplemented with 10% Fetal Bovine Serum. Cells were seeded at 1,000 cells/well in a 96-well plate and treated with JNJ-42756493. After 72 hours cell viability was assessed using the 3-(4,5-dimethythiazol-2-yl)-2,5-diphenyl tetrazolium bromide (MTT) assay. Data are mean±SEM of six replicates. Experiments were performed three times.

In data set [4] the test system is mouse astrocytes expressing FGFR3-TACC3-KD or the empty vector. The note with it: cells expressing KD mutant fusion or empty vector. On the procedure: as §1
Data set [5] concerns mouse astrocytes expressing FGFR3-TACC3. The note with it: mouse astrocytes expressing FGFR3-TACC3, 72 hours, MTT. On the procedure:
as §1

In data set [6] the test system is all members of the FGFR family. The note with it: cited from earlier work.
Data set [7] concerns nonclinical models with FGFR aberrations. The note with it: squamous NSCLC, gastric, breast, HCC, endometrial, bladder; cited from earlier work.
The next data set deals with activated FGFR. The note with it: cited from earlier work.
The test system of data set [8] is GIC-1123 tumor xenografts. The experiment in a line: Subcutaneous GIC-1123 xenografts treated with JNJ-42756493. The note with it: 12 mg/kg, oral.
Description: After tumor establishment (arrow) mice were treated with vehicle or JNJ-42756493 (12 mg/kg) for 14 days. Values are mean tumor volumes±SD, (n=9 mice per group). P-value of the slope calculated from the treatment starting point (arrow) is 0.04.
Subcutaneous xenografts and drug treatment. GIC-1123 cells (5×10^5) were injected subcutaneously in the flank of athymic nude (Nu/Nu) mice (Charles River Laboratories). Mice carrying ˜200 mm 3 subcutaneous tumors were randomized to receive 12 mg/kg JNJ-42756493 or DMSO in 1% Tween 80 by oral gavage. Tumor diameters were measured with caliper and tumor volumes estimated using the formula: 0.5×length×width 2. Data are mean±SD of nine mice in each group. Mice were sacrificed when tumors in the control group reached the maximal size allowed by the IACUC Committee at Columbia University.
The test system of data set [9] is recurrent GBM harboring FGFR3-TACC3 fusions. The experiment in a line: Phase I trial of JNJ-42756493 in patients with recurrent GBM harboring FGFR3-TACC3 (MRI, RANO, volumetry).
Description: (A) Post-gadolinium T1 weighted images show the target lesion on the right parietal lobe. […] (B) Analysis of sum of product diameters (SPD) before and during the anti-FGFR treatment (RANO criteria). (C) Analysis of tumor volume (cm3) before and during the anti-FGFR treatment. […] (D) Perfusion images at baseline and after 20 days of anti-FGFR treatment. rCBV (relative cerebral blood volume). Post-gadolinium T1 weighted images with color overlay of rCBV are shown. […] (F) Analysis of sum of product diameters (SPD) before and during the anti-FGFR treatment.
MRI imaging and evaluation of clinical response to JNJ-42756493. Baseline and follow-up imaging assessments were performed on 1.5 Tesla MR imaging systems, including at least axial T1 weighted images before gadolinium injection, Axial or 3D FLAIR (Fluid-Attenuated Inversion-Recovery), dynamic susceptibility contrast MR perfusion (0.1 mmol/kg of gadobutrol), axial and 3D T1 weighted images after gadolinium injection. Tumor response was assessed according to the RANO criteria (33). Contrast-enhancing lesion volume was assessed with the help of a semi-automated volumetry tool (SegmentiX), based on shape-detection and thresholding, with control and manual correction of edges when necessary. Since exclusion of cystic or necrotic portions of the lesion may be affected by operator subjectivity, both were included for volumetric and axial measurements.
DSC (dynamic susceptibility contrast) perfusion datasets were processed with vendor's software suite (Neuroperfusion, Philips), including coregistration and rCBV (relative cerebral blood volume) parametric maps generation with 3 different algorithms (Gamma-variate fitting, Arterial Input Function based deconvolution and Model Free).
For the next data set, the target named is T1, FGFR3-TACC3 (Homo sapiens, UniProt P22607).
T1 construct: a protein of 1,048 amino acids resulting from the fusion of a FGFR3 amino-terminal portion of residues 1-758; expressed in transfected cells; host or cells: Ink4A;Arf-/- mouse astrocytes, lentiviral transduction (pLOC-GFP / pTomo vectors)
The experiment in a line: Western blot of constitutive phosphorylation of FGFR3-TACC3 and FRS2 in Ink4A;Arf-/- astrocytes. Conditions: 100 nM PD173074, Ink4A;Arf-/- astrocytes. Format: cell-based, mouse. On the procedure: Ink4A; Arf−/− astrocytes transduced with empty lentivirus or a lentivirus expressing FGFR3-TACC3 or FGFR3-TACC3-K508M were left untreated (0) or treated with 100 nM of the FGFR inhibitor PD173074 for the indicated times. Phospho-proteins and total proteins were analyzed by Western blot using the indicated antibodies.

In another data set the test system is Rat1A cells. Description: Karyotype analysis (chromosome counts, aneuploidy) of Rat1A cells. Format: cell-based, rat. The note with it: five days. The protocol: Distribution of chromosome counts of cells arrested in mitosis and analyzed for karyotypes using DAPI. Chromosomes were counted in 100 metaphase cells for each condition to determine the ploidy and the diversity of chromosome counts within the cell population. FGFR3-TACC3 fusion induces aneuploidy.
The upper panel is a karyotype analysis of Rat1A cells transduced with control or FGFR3-TACC3 lentivirus and treated with vehicle (DMSO) or PD173470 (100 nM) for five days.
(§2) Karyotype analysis. Cultured cells were colcemid (20 ng/ml) treated for 90 minutes before harvesting for karyotopic analysis as detailed in Extended Experimental procedures. At least one hundred cells in metaphase were examined for chromosome count. PMSCS was scored in cells where a majority of the sister chromosomes were no longer associated. Two-tailed unpaired t-tests with Welch's correction were performed for comparison of means analysis.
Karyotypic Analysis. The colcemid treated cells were trypsinized, centrifuged for 7 minutes at 200×g, and the cell pellet re-suspended in warmed hypotonic solution and incubated at 37° C. for 13 minutes. The swollen cells were then centrifuged and the pellet re-suspended in 8 ml of Carnoy's fixative (3:1 methanol:glacial acetic acid). […] Slides were stained with DAPI and metaphases were analyzed under a fluorescent microscope.

For data set [10], the system named is Rat1A cells and Ink4A;Arf-/- astrocytes. Description: Premature sister chromatid separation (PMSCS) in metaphase spreads. The data set is classed as cell-based. The note with it: cells expressing FGFR3-TACC3.
Description: Correction of premature sister chromatid separation (PMSCS) by PD173470 in cells expressing FGFR3-TACC3. Panels show representative metaphase spreads. DNA was stained by DAPI.
Left, panels show representative metaphase spreads. Right, quantitative analysis of metaphases with loss of sister chromatid cohesion. The number of mitosis with PMSCS in Ink4A; Arf−/− astrocytes was scored in at least 100 methaphases for each condition in three independent experiments. The number of mitosis with PMSCS was scored in triplicate samples of Rat1A cells. FIG. 13D is a graph showing nocodazole was added for the indicated durations to Rat1A-H2B-GFP cells transduced with the specified lentiviruses. The mitotic index at each time point was determined by quantitating the H2B-GFP-positive cells in mitosis at each time point. Data are presented as average and standard deviation (n=3).
as §2

Data set [11] deals with glioma xenografts of FGFR3-TACC3 transformed astrocytes. Description: Subcutaneous glioma xenografts of FGFR3-TACC3 transformed astrocytes, drug treatment. The note with it: 50 mg/kg, oral gavage. The data set is classed as in vivo, mouse. On the procedure:
Subcutaneous xenografts and drug treatment. […] For experiments with FGFR inhibitors, mice carrying ˜200-300 mm 3 subcutaneous tumors derived from Ink4A; Arf−/− astrocytes were randomized to receive 50 mg/kg PD173074 in 0.05 M lactate buffer (pH 5) or an equal volume of lactate buffer by oral gavage. Treatment was administered for three cycles consisting of four consecutive days followed by two days of rest. […] Data are expressed as mean±SE.

For “sh-4: MISSION shRNA hairpin targeting the FGFR3 gene, SEQ ID NO: 184 (guide GCACAACCTCGACTACTACAA; the letters are possibly those of the target site)”, the “growth of cells ectopically expressing FGFR3-TACC3 after FGFR3 silencing” value in [1] is “reverted the growth rate”.
Consider `COc1cc(CCc2cc(NC(=O)c3ccc(N4C[C@@H](C)N[C@@H](C)C4)cc3)n[nH]2)cc(OC)c1` [AZD4547], for which the “survival of mice with intracranial FGFR3-TACC3 glioma” value in [2] is “markedly prolonged survival”.
In the case of “sh-3: MISSION shRNA hairpin targeting the FGFR3 gene, SEQ ID NO: 183 (guide GTTCCACTGCAAGGTGTACAG; the letters are possibly those of the target site)”, in [1], the “growth of cells ectopically expressing FGFR3-TACC3 after FGFR3 silencing” value was “reverted the growth rate”.
The molecule `COc1cc(OC)cc(N(CCNC(C)C)c2ccc3ncc(-c4cnn(C)c4)nc3c2)c1` [JNJ-42756493] gave an IC50 in data set [3] of 1.55 nM. In addition, in [4], the “sensitivity to FGFR inhibition” value is “but not cells expressing the KD mutant fusion or the empty vector”. In [5], this molecule had a half-inhibitory concentration (IC50) of 3.03 nM. Also, in [6], the “IC50 values for all members of the FGFR family” value was “low nanomolar range”. The “antitumor activities in nonclinical models with FGFR aberrations” value in [7] is “potent antitumor activities”. Further, in the data set with activated FGFR, the “concentration inhibiting tyrosine phosphorylation of activated FGFR” value is reported as “nanomolar concentrations”. Further, in data set [8], the “growth of GIC-1123 tumor xenografts” value was “potent growth inhibition”. Moreover, the “tumor regression of GIC-1123 xenografts” value in data set [8] (after two weeks) was “statistically significant tumor regression”. For the same molecule, in data set [9] (Patient 1), the “change of the enhancing parenchyma of the tumor mass” value is recorded as −44%; the duration of stabilization is given as 115 days; the “toxicity observed during treatment” value is “grade I hyperphosphatemia, asthenia, dysgueusia, dry mouth, keratitis, and grade II nail changes”. The “tumor response on MRI (RANO sum of product diameters, volumetry)” value in data set [9] (Patient 1, 12 mg/day, 7 days on/7 days off) is reported as “stabilization of the tumor; also recorded: stable disease; also recorded: disease stabilization”. In [9] (Patient 1, MR perfusion), the “extent of tumor vascularity (rCBV)” value is listed as “marked reduction”. For the same molecule, the clinical status result in data set [9] (Patient 1, after 3 weeks) is given as “marked clinical improvement”. Also, in data set [9] (Patient 2), the “time to best response” value was 104 days; the “time to disease progression after start of anti-FGFR” value is listed as 134 days; the “toxicity observed during treatment” value is “Grade I hyperphosphatemia, nail changes, and mucositis”; the tumor response category result was “minor response”. In data set [9] (Patient 2, after 4 weeks), the clinical status entry is “clinical improvement”. Also, in data set [9] (Patient 2, best response), the “reduction of tumor size according to the RANO criteria” value was found to be 22% and the “tumor reduction according to volumetry” value was determined as 28%.
Consider `CCN(CC)CCCCNc1ncc2cc(-c3cc(OC)cc(OC)c3)c(NC(=O)NC(C)(C)C)nc2n1` [PD173074], for which, at FGFR3-TACC3, the “constitutive phosphorylation of the TK domain of FGFR3-TACC3 and of FRS2” value is “abolished”. Besides, the “distribution of chromosome counts” value in the data set with Rat1A cells (Rat1A expressing FGFR3-TACC3, 100 nM) is listed as “restored the narrow distribution of chromosome counts”. Further, the “rescue of the aneuploidy caused by FGFR3-TACC3” value in the data set on Rat1A cells (Rat1A, 100 nM) is reported as “over 80%”. Besides, the “cohesion defect (premature sister chromatid separation)” value is “largely corrected” in data set [10] and “Correction” in [10] (listed as PD173470). The “tumor growth of FGFR3-TACC3 glioma subcutaneous xenografts” value in data set [11] is given as “potent growth inhibition”.
